IC50 data for nine molecules are collected here from patent US20100227859A1, “TRICYCLIC COMPOUNDS AS MATRIX METALLOPROTEINASE INHIBITORS” (priority 2007, published 2010).

Where only a bound is given, the exact number is not on record here.

The target of this experiment is purified human MMP-12 enzyme (Homo sapiens, UniProt P39900). As to the kind of experiment: MMP-12 FRET assay. The format is biochemical. Conditions: substrate 20 μM, room temperature. A digest of the protocol: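 Initial fluorescence rate (325/395 nm) of cleavage of MCA-Pro-Leu-Gly-Leu-Dpa(DNP)-Ala-Arg, 20 μM final, was followed for 30 min at room temperature after a 30 min enzyme–compound preincubation. Buffer: 50 mM HEPES pH 7.4, 100 mM NaCl, 5 mM CaCl2, 0.005% Brij-35, with 10% final DMSO. IC50 came from a Hill-type fit of rate versus inhibitor concentration.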
Chain of purified human MMP-12 enzyme (P39900 106-470): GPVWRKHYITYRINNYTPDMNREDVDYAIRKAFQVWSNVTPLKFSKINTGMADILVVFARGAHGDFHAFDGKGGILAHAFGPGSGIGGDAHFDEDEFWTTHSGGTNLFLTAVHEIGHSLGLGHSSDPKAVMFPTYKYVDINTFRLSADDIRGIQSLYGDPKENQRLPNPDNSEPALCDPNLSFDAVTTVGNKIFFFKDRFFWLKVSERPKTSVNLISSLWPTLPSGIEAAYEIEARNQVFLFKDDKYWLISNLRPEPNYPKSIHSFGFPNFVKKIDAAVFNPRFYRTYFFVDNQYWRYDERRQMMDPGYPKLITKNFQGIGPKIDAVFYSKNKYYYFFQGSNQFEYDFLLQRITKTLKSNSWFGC
For `CC(C)c1nc(-c2ccc3c(c2)oc2cc(S(=O)(=O)N[C@H](C(=O)O)C(C)C)ccc23)no1` [Compound 154, (S)-2-(7-(5-isopropyl-1,2,4-oxadiazol-3-yl)dibenzo[b,d]furan-3-sulfonamido)-3-methylbutanoic acid], the half-maximal inhibitory concentration (IC50) turned out to be 0.032 µM. For `CC(C)[C@@H](NS(=O)(=O)c1ccc2oc3cc(-c4nc(C(F)(F)F)c(Cl)s4)ccc3c2c1)C(=O)O` [Compound 295, (R)-2-(7-(5-chloro-4-(trifluoromethyl)thiazol-2-yl)dibenzo[b,d]furan-2-sulfonamido)-3-methylbutanoic acid], the half-inhibitory concentration (IC50) came out at 0.015 µM. Consider `CC(C)[C@H](NS(=O)(=O)c1ccc2c(c1)sc1ccc(-c3ccc[nH]3)cc12)C(=O)O` [Compound 57, (S)-2-(8-(1H-pyrrol-2-yl)dibenzo[b,d]thiophene-3-sulfonamido)-3-methylbutanoic acid], for which 0.021 µM corresponded to half-maximal inhibition (IC50). Regarding `CC(C)[C@H](NS(=O)(=O)c1ccc2c(c1)oc1ccc(-c3nc(C(F)(F)F)c(Cl)s3)cc12)C(=O)O` [Compound 200, (S)-2-(8-(5-chloro-4-(trifluoromethyl)thiazol-2-yl)dibenzo[b,d]furan-3-sulfonamido)-3-methylbutanoic acid], the IC50 is less than 0.0015 µM. The molecule `CC(C)Cc1ncc(-c2ccc3c(c2)oc2cc(S(=O)(=O)N[C@H](C(=O)O)C(C)C)ccc23)s1` [Compound 249, (S)-2-(7-(2-isobutylthiazol-5-yl)dibenzo[b,d]furan-3-sulfonamido)-3-methylbutanoic acid] returned an IC50 of 0.0078 µM. `CC(C)[C@@H](NS(=O)(=O)c1ccc2oc3cc(-c4ccc(C(F)(F)F)cc4)ccc3c2c1)C(=O)O` [Compound 120, (R)-3-methyl-2-(7-(4-(trifluoromethyl)phenyl)dibenzo[b,d]furan-2-sulfonamido)butanoic acid] had a half-inhibitory concentration (IC50) of 0.0022 µM.

As to `CC(C)[C@H](NS(=O)(=O)c1ccc2c(c1)oc1cc(-c3nc4ccc(F)cc4s3)ccc12)C(=O)O` [Compound 237, (S)-2-(7-(6-fluorobenzo[d]thiazol-2-yl)dibenzo[b,d]furan-3-sulfonamido)-3-methylbutanoic acid], the IC50 is less than 0.0015 µM. Molecule `CC(C)(C)c1nc(-c2ccc3oc4cc(S(=O)(=O)N[C@H](Cc5c[nH]c6ccccc56)C(=O)O)ccc4c3c2)no1` [Compound 256, (R)-2-(8-(5-tert-butyl-1,2,4-oxadiazol-3-yl)dibenzo[b,d]furan-3-sulfonamido)-3-(1H-indol-3-yl)propanoic acid] showed a half-maximal inhibitory concentration (IC50) of 0.129 µM. As for `CC(C)[C@H](NS(=O)(=O)c1ccc2c(c1)oc1cc(-c3sc(Cl)c(Cl)c3Cl)ccc12)C(=O)O` [Compound 86, (S)-3-methyl-2-(7-(3,4,5-trichlorothiophen-2-yl)dibenzo[b,d]furan-3-sulfonamido)butanoic acid], the figure is less than 0.0015 µM.
